# Active and inactive are the calls of the source.
# How the values were obtained:
# [1] = target: T1, Histone-lysine N-methyltransferase NSD2 (Homo sapiens, UniProt O96028); assay type: biochemical
# T1 sequence (O96028 whole entry): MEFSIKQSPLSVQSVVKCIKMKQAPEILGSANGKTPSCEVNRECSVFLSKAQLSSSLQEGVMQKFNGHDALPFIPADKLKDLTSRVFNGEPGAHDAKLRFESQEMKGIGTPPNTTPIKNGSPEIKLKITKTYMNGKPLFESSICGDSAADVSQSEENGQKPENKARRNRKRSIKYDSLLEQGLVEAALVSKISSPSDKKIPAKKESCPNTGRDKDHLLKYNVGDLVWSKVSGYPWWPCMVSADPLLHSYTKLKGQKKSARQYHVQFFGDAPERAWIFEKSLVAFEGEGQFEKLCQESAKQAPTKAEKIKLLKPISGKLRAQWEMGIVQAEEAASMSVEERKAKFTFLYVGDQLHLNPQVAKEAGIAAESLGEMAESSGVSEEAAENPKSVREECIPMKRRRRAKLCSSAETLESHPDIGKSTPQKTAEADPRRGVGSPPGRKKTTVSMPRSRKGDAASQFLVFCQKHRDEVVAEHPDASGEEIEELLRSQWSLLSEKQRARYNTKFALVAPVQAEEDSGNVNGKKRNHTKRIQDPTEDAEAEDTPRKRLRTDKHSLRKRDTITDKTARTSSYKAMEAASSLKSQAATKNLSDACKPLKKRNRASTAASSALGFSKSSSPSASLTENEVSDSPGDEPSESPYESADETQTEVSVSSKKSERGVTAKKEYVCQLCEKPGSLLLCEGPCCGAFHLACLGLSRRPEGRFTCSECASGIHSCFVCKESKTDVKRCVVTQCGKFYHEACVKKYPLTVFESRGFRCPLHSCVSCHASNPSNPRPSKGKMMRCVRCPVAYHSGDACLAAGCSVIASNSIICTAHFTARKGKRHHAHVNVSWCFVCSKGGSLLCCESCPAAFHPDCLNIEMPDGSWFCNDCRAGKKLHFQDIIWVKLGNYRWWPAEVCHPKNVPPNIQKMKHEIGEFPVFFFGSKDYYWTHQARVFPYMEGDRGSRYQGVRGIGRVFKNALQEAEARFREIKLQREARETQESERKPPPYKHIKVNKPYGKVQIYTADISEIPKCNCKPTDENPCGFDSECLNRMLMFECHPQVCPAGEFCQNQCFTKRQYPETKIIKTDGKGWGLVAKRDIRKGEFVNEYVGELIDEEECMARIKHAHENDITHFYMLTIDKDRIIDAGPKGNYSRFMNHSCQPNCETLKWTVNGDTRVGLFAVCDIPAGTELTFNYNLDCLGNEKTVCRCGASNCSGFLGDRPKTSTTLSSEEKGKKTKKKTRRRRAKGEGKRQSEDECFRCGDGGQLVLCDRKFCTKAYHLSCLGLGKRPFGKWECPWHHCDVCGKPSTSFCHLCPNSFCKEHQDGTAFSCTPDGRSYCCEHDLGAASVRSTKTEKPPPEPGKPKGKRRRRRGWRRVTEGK
# [2] = THP-1 cell cytotoxicity, dose response, cytotoxicity control for Vif-APOBEC3G degradation inhibitor project, THP-1 cells (AID 1117359); assay type: functional; conditions: Human immunodeficiency virus 1, THP-1
# [3] = target: Dual specificity tyrosine-phosphorylation-regulated kinase 1A (Rattus norvegicus, UniProt Q63470); assay type: biochemical, Homo sapiens
# Vero = Vero cell cytotoxicity, cytotoxicity control for flavivirus capping enzyme inhibitors (AID 588742); assay type: functional; conditions: Chlorocebus sabaeus
# Genome polyprotein = Genome polyprotein (dengue virus type 2, UniProt P29990); assay: Dengue-2 NS5 methyltransferase inhibitors, primary screen, biochemical, confirmation dose response (AID 588689); assay type: functional
# Genome polyprotein, sequence (P29990 2492-3391 limits assumed): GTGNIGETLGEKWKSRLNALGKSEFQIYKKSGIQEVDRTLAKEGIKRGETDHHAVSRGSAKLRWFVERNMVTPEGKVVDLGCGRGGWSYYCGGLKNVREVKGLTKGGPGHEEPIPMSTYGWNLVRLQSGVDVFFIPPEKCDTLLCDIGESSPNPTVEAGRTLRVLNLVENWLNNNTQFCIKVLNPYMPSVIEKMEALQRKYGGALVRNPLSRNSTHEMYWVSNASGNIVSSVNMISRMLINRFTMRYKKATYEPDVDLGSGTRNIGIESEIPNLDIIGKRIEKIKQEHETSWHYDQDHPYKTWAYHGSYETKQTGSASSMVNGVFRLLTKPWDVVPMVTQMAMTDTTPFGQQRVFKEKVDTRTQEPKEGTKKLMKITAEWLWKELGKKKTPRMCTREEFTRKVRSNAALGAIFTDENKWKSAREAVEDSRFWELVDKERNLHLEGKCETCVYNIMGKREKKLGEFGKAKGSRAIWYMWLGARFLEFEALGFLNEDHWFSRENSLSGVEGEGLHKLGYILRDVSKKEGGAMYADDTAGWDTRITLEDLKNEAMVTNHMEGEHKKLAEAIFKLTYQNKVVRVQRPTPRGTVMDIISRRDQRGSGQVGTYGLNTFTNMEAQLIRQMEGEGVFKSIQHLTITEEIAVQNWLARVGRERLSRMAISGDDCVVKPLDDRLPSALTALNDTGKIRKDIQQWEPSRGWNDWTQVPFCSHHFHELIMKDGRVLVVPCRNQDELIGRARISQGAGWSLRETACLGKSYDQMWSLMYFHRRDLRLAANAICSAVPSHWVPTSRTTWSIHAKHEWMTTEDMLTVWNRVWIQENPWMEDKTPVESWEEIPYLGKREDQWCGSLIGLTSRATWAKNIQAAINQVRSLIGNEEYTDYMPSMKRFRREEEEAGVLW
# Hexokinase HKDC1 = target: T2, Hexokinase HKDC1 (Homo sapiens, UniProt Q2TB90); assay: HKDC1 hexokinase inhibitors, dose response, biochemical, W721R variant (AID 504729); assay type: functional
# T2 sequence (Q2TB90 whole entry): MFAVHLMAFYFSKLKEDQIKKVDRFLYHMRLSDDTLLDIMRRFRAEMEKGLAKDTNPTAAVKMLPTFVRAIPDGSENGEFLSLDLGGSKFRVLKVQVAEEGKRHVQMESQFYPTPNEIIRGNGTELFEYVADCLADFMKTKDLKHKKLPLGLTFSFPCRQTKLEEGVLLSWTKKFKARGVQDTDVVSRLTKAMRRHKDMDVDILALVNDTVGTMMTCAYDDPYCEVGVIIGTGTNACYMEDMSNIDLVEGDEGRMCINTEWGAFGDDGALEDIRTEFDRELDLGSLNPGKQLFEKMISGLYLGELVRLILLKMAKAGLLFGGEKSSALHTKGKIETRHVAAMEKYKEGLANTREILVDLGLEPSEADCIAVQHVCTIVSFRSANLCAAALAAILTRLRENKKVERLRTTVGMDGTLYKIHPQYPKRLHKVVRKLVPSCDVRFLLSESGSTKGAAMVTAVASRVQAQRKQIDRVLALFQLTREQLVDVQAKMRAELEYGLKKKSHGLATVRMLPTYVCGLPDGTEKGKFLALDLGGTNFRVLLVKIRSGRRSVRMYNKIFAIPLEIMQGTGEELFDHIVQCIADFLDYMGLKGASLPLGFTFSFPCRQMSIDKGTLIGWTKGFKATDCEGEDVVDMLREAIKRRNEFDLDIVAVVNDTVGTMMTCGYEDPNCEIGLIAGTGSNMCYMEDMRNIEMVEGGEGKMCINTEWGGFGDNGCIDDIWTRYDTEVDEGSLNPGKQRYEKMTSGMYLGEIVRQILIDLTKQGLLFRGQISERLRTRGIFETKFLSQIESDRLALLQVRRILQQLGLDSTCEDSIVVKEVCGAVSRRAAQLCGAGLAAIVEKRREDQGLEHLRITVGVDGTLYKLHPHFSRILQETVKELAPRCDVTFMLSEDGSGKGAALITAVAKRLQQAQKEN
# [4] = target: T3, Tyrosyl-DNA phosphodiesterase 2 (Homo sapiens, UniProt O95551); assay: human TDP2 enzyme inhibitors, dose response, biochemical, epi absorbance, IC50 (AID 743297)
# T3 sequence (O95551 whole entry): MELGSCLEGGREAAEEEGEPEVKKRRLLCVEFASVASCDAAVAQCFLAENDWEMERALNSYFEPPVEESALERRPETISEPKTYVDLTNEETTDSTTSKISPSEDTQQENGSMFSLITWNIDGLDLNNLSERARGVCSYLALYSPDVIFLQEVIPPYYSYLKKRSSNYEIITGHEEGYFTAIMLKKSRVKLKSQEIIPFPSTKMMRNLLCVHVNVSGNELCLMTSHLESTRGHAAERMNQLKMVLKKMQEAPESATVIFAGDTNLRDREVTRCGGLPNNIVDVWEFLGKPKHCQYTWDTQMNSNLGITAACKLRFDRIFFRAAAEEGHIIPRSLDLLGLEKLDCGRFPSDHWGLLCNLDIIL
# Paired box protein Pax-8 = Paired box protein Pax-8 (Homo sapiens, UniProt Q06710); assay: inhibitors of PAX8-driven TPO luciferase reporter, dose response, RMG-I cells, cherry-pick (AID 687027); assay type: functional, cell-based;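 also: luciferase reporter driven by Pax8 target thyroperoxidase promoter measured by SteadyGlo luminescence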
# Paired box protein Pax-8, sequence (Q06710 whole entry): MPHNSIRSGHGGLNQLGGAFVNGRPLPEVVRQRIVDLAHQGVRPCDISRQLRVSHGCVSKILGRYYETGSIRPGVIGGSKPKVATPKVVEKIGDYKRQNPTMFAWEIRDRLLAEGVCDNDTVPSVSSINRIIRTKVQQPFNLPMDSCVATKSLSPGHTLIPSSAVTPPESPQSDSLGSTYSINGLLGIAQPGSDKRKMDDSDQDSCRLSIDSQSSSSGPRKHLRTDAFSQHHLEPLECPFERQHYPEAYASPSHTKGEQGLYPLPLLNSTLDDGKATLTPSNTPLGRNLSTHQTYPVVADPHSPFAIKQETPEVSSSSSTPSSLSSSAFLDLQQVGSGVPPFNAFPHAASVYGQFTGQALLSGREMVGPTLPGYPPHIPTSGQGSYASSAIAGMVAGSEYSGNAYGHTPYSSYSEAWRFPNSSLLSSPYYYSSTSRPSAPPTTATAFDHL
# [5] = target: Ras and Rab interactor 1/Tyrosine-protein kinase ABL1 (Homo sapiens, UniProt P00519+Q13671); assay type: functional;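 also: biochemical TR-FRET dose-response test measuring inhibition of binding between Rin1 and Abl proteins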
# Ras and Rab interactor 1/Tyrosine-protein kinase ABL1, sequence (P00519 whole entry): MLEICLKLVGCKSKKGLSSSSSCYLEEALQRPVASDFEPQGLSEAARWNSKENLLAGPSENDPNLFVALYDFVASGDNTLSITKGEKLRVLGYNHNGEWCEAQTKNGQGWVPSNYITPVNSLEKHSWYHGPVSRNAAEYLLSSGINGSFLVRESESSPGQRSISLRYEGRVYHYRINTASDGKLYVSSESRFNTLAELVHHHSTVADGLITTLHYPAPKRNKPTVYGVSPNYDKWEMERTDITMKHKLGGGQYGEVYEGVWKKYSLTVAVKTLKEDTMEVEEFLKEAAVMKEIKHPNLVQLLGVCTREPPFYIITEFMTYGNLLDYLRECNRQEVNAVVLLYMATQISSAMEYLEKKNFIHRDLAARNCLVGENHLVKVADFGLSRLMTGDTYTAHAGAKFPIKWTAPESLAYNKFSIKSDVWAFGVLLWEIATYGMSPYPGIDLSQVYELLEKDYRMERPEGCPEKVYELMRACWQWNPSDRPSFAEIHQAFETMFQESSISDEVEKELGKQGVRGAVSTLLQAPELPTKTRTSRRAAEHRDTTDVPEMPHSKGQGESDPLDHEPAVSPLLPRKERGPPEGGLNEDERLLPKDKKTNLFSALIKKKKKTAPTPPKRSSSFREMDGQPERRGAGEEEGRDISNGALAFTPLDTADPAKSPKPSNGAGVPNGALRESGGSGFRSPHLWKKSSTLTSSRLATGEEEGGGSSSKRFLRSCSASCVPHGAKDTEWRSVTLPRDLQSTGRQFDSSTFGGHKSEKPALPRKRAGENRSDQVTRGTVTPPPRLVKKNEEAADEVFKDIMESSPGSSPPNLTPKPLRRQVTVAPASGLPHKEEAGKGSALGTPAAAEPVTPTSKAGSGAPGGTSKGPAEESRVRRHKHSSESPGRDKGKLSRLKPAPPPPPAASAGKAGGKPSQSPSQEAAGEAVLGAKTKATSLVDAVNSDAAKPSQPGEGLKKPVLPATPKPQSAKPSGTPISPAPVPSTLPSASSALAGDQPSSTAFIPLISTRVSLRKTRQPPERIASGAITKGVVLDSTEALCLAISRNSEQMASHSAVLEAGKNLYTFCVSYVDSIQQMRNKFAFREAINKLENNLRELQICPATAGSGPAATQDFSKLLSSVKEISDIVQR
# Ras and Rab interactor 1/Tyrosine-protein kinase ABL1, sequence (Q13671 whole entry): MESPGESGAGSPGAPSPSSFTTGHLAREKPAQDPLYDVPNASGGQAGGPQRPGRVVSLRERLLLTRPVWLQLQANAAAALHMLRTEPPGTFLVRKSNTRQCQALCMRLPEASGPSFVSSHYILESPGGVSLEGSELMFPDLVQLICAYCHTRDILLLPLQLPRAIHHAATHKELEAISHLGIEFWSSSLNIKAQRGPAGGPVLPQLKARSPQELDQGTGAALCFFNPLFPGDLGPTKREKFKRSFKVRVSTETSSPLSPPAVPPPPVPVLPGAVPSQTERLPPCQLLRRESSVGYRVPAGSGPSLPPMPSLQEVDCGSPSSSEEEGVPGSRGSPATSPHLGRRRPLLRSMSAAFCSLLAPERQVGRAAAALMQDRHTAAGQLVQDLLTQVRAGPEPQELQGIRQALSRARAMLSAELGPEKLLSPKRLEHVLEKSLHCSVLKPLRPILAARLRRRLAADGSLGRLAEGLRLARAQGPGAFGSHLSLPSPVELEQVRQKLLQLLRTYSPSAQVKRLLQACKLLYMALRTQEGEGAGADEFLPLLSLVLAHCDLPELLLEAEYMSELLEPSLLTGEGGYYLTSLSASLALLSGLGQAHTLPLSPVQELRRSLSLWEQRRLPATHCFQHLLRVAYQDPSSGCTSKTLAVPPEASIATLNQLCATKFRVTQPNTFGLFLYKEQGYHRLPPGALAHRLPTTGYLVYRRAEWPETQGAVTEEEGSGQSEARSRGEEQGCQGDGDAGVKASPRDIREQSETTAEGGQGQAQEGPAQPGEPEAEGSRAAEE
# Cysteine protease ATG4B = target: T4, Cysteine protease ATG4B (Homo sapiens, UniProt Q9Y4P1); assay type: functional;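 also: Fluorescence-based dose-response confirmation assay measuring inhibition of ATG4B activity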
# T4 sequence (Q9Y4P1 whole entry): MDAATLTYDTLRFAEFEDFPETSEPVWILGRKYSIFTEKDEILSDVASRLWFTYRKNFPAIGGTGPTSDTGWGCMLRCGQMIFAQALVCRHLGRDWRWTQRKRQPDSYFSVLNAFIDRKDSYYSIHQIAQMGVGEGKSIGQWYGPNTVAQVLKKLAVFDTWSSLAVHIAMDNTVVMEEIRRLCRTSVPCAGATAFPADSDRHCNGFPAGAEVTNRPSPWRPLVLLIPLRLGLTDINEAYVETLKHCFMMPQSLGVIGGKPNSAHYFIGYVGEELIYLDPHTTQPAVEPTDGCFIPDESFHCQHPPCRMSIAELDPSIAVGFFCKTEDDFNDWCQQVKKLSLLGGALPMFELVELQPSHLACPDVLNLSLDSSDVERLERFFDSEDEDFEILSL
# [6] = target: Mitochondrial peptide methionine sulfoxide reductase (Bos taurus, UniProt P54149); assay: Absorbance-based biochemical high throughput dose response assay for activators of Methionine sulfoxide reductase A (MsrA).; assay type: functional
# Mitochondrial peptide methionine sulfoxide reductase, sequence (P54149 whole entry): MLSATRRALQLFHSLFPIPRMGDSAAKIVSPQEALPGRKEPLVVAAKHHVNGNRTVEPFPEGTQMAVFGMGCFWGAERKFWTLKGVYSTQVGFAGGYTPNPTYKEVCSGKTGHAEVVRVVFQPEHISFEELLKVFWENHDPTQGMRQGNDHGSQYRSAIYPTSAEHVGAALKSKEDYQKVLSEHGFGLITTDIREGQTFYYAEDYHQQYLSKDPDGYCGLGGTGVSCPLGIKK
# Phospholipase A2 = Phospholipase A2 (Homo sapiens, UniProt P04054); assay type: functional;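 also: confirmatory dose-response counterscreen on phospholipase A2, testing hits that came from an ultra-high-throughput screen for ATG4B inhibitors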
# Phospholipase A2, sequence (P04054 whole entry): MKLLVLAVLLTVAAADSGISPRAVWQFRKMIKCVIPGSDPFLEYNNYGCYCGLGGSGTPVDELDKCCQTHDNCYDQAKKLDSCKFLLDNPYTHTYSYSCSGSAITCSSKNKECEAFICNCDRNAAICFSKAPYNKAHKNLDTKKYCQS
# [7] = non-specific cell cytotoxicity, dose response, cytotoxicity control for PAX8 inhibitor project, plate reader, dry powder samples (AID 743021); assay type: functional, cell-based
smiles,measurement,setting,value
COC1=CC(=O)c2c(ccc3ncnc(N)c23)C1=O,AC50,[1],1.28 µM (active)
same,CC50,[2],10.4 µM (active)
same,AC50,[3],2.53 µM (active)
same,CC50,Vero,4.63 µM (active)
same,IC50,Genome polyprotein,62.4 µM (active)
same,IC50,Hexokinase HKDC1,1.56 µM (active)
same,IC50,[4],0.842 µM (active)
same,AC50,Paired box protein Pax-8,1.06 µM (active)
same,IC50,[5],> 73.4 µM (inactive)
same,IC50,Cysteine protease ATG4B,6.81 µM (active)
same,EC50,[6],14.1 µM (inactive)
same,IC50,Phospholipase A2,> 80 µM (inactive)
same,AC50,[7],9.49 µM (active)
